The results in this text go back to US9242981B2, “Fused pyrazole derivatives as novel ERK inhibitors” (Merck Sharp & Dohme Corp., priority 2010, dated 2016).

The term pIC50 denotes −log10 of the IC50, conventionally taken in molar units. A high value points to a low IC50.

pIC50: −log10 of the molar value. A value given as a limit tells only on which side of the number the result lay.

The target of the assay is Mouse ERK2 protein (Mus musculus (Mouse), UniProt P63085). In words: Coupled MEK1/ERK2 IMAP assay or Active ERK2 IMAP assay. The assay is classed as biochemical. The conditions noted are these: Table 1, class symbols, 30 μM ATP.
Sequence of Mouse ERK2 protein (P63085 whole entry): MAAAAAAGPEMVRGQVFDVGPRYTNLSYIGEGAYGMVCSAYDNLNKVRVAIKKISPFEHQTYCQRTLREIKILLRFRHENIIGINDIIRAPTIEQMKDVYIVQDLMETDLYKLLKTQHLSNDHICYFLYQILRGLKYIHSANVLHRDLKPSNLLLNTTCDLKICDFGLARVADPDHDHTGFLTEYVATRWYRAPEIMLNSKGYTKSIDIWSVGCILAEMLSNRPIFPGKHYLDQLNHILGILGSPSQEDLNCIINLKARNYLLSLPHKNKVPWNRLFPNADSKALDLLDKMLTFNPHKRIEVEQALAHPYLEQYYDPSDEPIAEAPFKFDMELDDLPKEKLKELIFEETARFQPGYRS

Compound `COc1ccc2ccccc2c1CN1CCC[C@@H](NC(=O)N2CCc3[nH]nc(-c4ccnc(C)c4)c3C2)C1` [Compound 97, 1,4,6,7-tetrahydro-N-[1-[(2-Methoxy-1-naphthalenyl)-methyl]-3(R)-piperidinyl]-3-(2-methyl-4-pyridinyl)-5H-pyrazolo[4,3-c]pyridine-5-carboxamide] had a pIC50 of 7.00 to 7.68.

In turn, `Cc1cc(-c2n[nH]c3c2CN(C(=O)N[C@@H]2CCCN(Cc4ccnc5ccccc45)C2)CC3)ccn1` [Compound 98] had a pIC50 of 6.00 to 7.00.

`COc1ccc(CN2CCC[C@@H](NC(=O)N3CCc4[nH]nc(-c5ccnc(C)c5)c4C3)C2)c2ccccc12` [Compound 99, 1,4,6,7-tetrahydro-N-[1-[(4-Methoxy-1-naphthalenyl)-methyl]-3(R)-piperidinyl]-3-(2-methyl-4-pyridinyl)-5H-pyrazolo[4,3-c]pyridine-5-carboxamide] showed a pIC50 of 7.00 to 7.68.

`Cc1cc(-c2n[nH]c3c2CN(C(=O)NC2CC(C)CN(Cc4csc5ccccc45)C2)CC3)ccn1` (stereo not shown) [Compound 101, N-[1-(benzo[b]thien-3-ylmethyl)-5-methyl-3-piperidinyl]-1,4,6,7-tetrahydro-3-(2-methyl-4-pyridinyl)-5H-pyrazolo[4,3-c]pyridine-5-carboxamide] showed a negative-log IC50 (pIC50) of 7.00 to 7.68.

For the compound `Cc1cc(-c2n[nH]c3c2CN(C(=O)NC2CC(C)CN(Cc4cc5ccccc5n4C)C2)CC3)ccn1` (stereo not shown) [Compound 102, 1,4,6,7-tetrahydro-N-[5-methyl-1-[(1-methyl-1H-indol-2-yl)methyl]-3-piperidinyl]-3-(2-methyl-4-pyridinyl)-5H-pyrazolo[4,3-c]pyridine-5-carboxamide], the pIC50 is 7.00 to 7.68.

Consider `Cc1cc(-c2n[nH]c3c2CN(C(=O)NC2CC(C)CN(Cc4ccccc4Cl)C2)CC3)ccn1` (stereo not shown) [Compound 103, N-[1-[(2-chlorophenyl)methyl]-5-methyl-3-piperidinyl]-1,4,6,7-tetrahydro-3-(2-methyl-4-pyridinyl)-5H-pyrazolo[4,3-c]pyridine-5-carboxamide], for which the pIC50 was 7.00 to 7.68.

Take `Cc1cc(-c2n[nH]c3c2CN(C(=O)NC2CC(C)CN(Cc4ccc5ccccc5n4)C2)CC3)ccn1` (stereo not drawn) [Compound 104, 1,4,6,7-tetrahydro-3-(2-methyl-4-pyridinyl)-N-[5-methyl-l-(2-quinolinylmethyl)-3-piperidinyl]-5H-pyrazolo[4,3-c]pyridine-5-carboxamide]: the pIC50 was 7.00 to 7.68.

As for `Cc1cc(-c2n[nH]c3c2CN(C(=O)NC2CCC(c4ccccc4)NC2)CC3)ccn1` (stereo not shown) [Compound 105, 1,4,6,7-tetrahydro-3-(2-methyl-4-pyridinyl)-N-(6-phenyl-3-piperidinyl)-5H-pyrazolo[4,3-c]pyridine-5-carboxamide], the pIC50 was 6.00 to 7.00.

Consider `Cc1cc(-c2n[nH]c3c2CN(C(=O)NC2CCC(c4ccccc4)N(Cc4c(F)cccc4F)C2)CC3)ccn1` (stereo not shown) [Compound 106, N-[1-[(2,6-difluorophenyl)-methyl]-6-phenyl-3-piperidinyl]-1,4,6,7-tetrahydro-3-(2-methyl-4-pyridinyl)-5H-pyrazolo[4,3-c]pyridine-5-carboxamide], for which the negative-log IC50 (pIC50) was 6.00 to 7.00.

Consider `O=C(NC1CC2CC1N(Cc1c(F)cccc1F)C2)N1CCc2[nH]nc(-c3ccncc3)c2C1` (stereo not shown) [Compound 107, N-[2-[(2,6-difluorophenyl)-methyl]-2-azabicyclo[2.2.1]-hept-6-yl]-1,4,6,7-tetrahydro-3-(4-pyridinyl)-5H-pyrazolo[4,3-c]pyridine-5-carboxamide], for which the negative-log IC50 (pIC50) is 6.00 to 7.00.

As for `COc1cccc(F)c1CN1CC2CC(NC(=O)N3CCc4[nH]nc(-c5ccncc5)c4C3)C1C2` (stereo not shown) [Compound 108, N-[2-[(2-fluoro-6-methoxyphenyl)methyl]-2-azabicyclo[2.2.1]hept-6-yl]-1,4,6,7-tetrahydro-3-(4-pyridinyl)-5H-pyrazolo[4,3-c]pyridine-5-carboxamide], the pIC50 is 6.00 to 7.00.

Take `O=C(N[C@@H]1CCCN(Cc2c(F)cccc2F)C1)N1CCc2[nH]nc(-c3ccc4nccn4c3)c2C1` [Compound 111, N-[1-[(2,6-difluorophenyl)-methyl]-3(R)-piperidinyl]-1,4,6,7-tetrahydro-3-(imidazo[1,2-a]pyridin-6-yl)-5H-pyrazolo[4,3-c]pyridine-5-carboxamide]: the pIC50 was > 7.70.

`O=C(NC1CC(O)CN(Cc2ccccc2Cl)C1)N1CCc2[nH]nc(-c3ccncc3)c2C1` (stereo not shown) [Compound 114, N-[1-[(2-chlorophenyl)-methyl]-5-hydroxy-3-piperidinyl]-1,4,6,7-tetrahydro-3-(4-pyridinyl)-5H-pyrazolo[4,3-c]pyridine-5-carboxamide]: the pIC50 is > 7.70.

Compound `Cc1cc(-c2n[nH]c3c2CN(C(=O)N[C@@H]2CCN(Cc4c(F)cccc4F)C2)CC3)ccn1` [Compound 115, N-[1-[(2,6-difluorophenyl)-methyl]-3(R)-pyrrolidinyl]-1,4,6,7-tetrahydro-3-(2-methyl-4-pyridinyl)-5H-pyrazolo[4,3-c]pyridine-5-carboxamide] had a pIC50 of 6.00 to 7.00.

`COc1cccc(F)c1CN1CC[C@@H](NC(=O)N2CCc3[nH]nc(-c4ccnc(C)c4)c3C2)C1` [Compound 116, N-[1-[(2-fluoro-6-methoxyphenyl)methyl]-3(R)-pyrrolidinyl]-1,4,6,7-tetrahydro-3-(2-methyl-4-pyridinyl)-5H-pyrazolo[4,3-c]pyridine-5-carboxamide] gave a negative-log IC50 (pIC50) of 7.00 to 7.68.

`Cc1cc(-c2n[nH]c3c2CN(C(=O)N[C@@H]2CCN(Cc4c(F)cccc4Cl)C2)CC3)ccn1` [Compound 117, N-[1-[(2-chloro-6-fluorophenyl)methyl]-3(R)-pyrrolidinyl]-1,4,6,7-tetrahydro-3-(2-methyl-4-pyridinyl)-5H-pyrazolo[4,3-c]pyridine-5-carboxamide]: the negative logarithm of the IC50 (pIC50) was 7.00 to 7.68.

For the compound `Cc1cc(-c2n[nH]c3c2CN(C(=O)N[C@@H]2CCN(Cc4ccccc4Cl)C2)CC3)ccn1` [Compound 118, N-[1-[(2-chlorophenyl)-methyl]-3(R)-pyrrolidinyl]-1,4,6,7-tetrahydro-3-(2-methyl-4-pyridinyl)-5H-pyrazolo[4,3-c]pyridine-5-carboxamide], the negative-log IC50 (pIC50) is 7.00 to 7.68.

In turn, `Cc1cc(-c2n[nH]c3c2CN(C(=O)N[C@@H]2CCN(Cc4c(C)cccc4C)C2)CC3)ccn1` [Compound 119, N-[1-[(2,6-dimethylphenyl)-methyl]-3(R)-pyrrolidinyl]-1,4,6,7-tetrahydro-3-(2-methyl-4-pyridinyl)-5H-pyrazolo[4,3-c]pyridine-5-carboxamide] gave a pIC50 of 7.00 to 7.68.

Turning to `Cc1cc(-c2n[nH]c3c2CN(C(=O)N[C@@H]2CCN(Cc4csc5ccccc45)C2)CC3)ccn1` [Compound 120, N-[1-(benzo[b]thien-3-ylmethyl)-3(R)-pyrrolidinyl]-1,4,6,7-tetrahydro-3-(2-methyl-4-pyridinyl)-5H-pyrazolo[4,3-c]pyridine-5-carboxamide], the pIC50 was > 7.70.

`COc1cccc(F)c1CN1CC(NC(=O)N2CCc3[nH]nc(-c4ccnc(C)c4)c3C2)CCC1C` (stereo not shown) [Compound 121, N-[1-[(2-fluoro-6-methoxyphenyl)methyl]-6-methyl-3-piperidinyl]-1,4,6,7-tetrahydro-3-(2-methyl-4-pyridinyl)-5H-pyrazolo[4,3-c]pyridine-5-carboxamide] showed a negative logarithm of the IC50 (pIC50) of 7.00 to 7.68.

In the case of `COc1cccc(F)c1CN1CCCC(NC(=O)N2CCc3[nH]nc(-c4ccnc(C)c4)c3C2)C1C` (stereo not shown) [Compound 122, N-[1-[(2-fluoro-6-methoxyphenyl)methyl]-2-methyl-3-piperidinyl]-1,4,6,7-tetrahydro-3-(2-methyl-4-pyridinyl)-5H-pyrazolo[4,3-c]pyridine-5-carboxamide], the negative-log IC50 (pIC50) is 6.00 to 7.00.

`COc1ccc(-c2n[nH]c3c2CN(C(=O)N[C@@H]2CCCN(Cc4c(C)cccc4C)C2)CC3)cc1F` [Compound 124, N-[1-[(2,6-dimethylphenyl)-methyl]-3(R)-piperidinyl]-3-(3-fluoro-4-methoxyphenyl)-1,4,6,7-tetrahydro-5H-pyrazolo[4,3-c]pyridine-5-carboxamide]: the pIC50 is 7.00 to 7.68.

As to `COc1ccc(-c2n[nH]c3c2CN(C(=O)N[C@@H]2CCCN(Cc4c(C)cccc4C)C2)CC3)cn1` [Compound 125, N-[1-[(2,6-dimethylphenyl)-methyl]-3(R)-piperidinyl]-1,4,6,7-tetrahydro-3-(6-Methoxy-3-pyridinyl)-5H-pyrazolo[4,3-c]pyridine-5-carboxamide], the pIC50 was 7.00 to 7.68.

For `Cc1cccc(C)c1CN1CCC[C@@H](NC(=O)N2CCc3[nH]nc(-c4ccc5nn(C)cc5c4)c3C2)C1` [Compound 126, N-[1-[(2,6-dimethylphenyl)-methyl]-3(R)-piperidinyl]-1,4,6,7-tetrahydro-3-(2-methyl-2H-indazol-5-yl)-5H-pyrazolo[4,3-c]pyridine-5-carboxamide], the negative logarithm of the IC50 (pIC50) was > 7.70.

Take `Cc1cccc(C)c1CN1CCC[C@@H](NC(=O)N2CCc3[nH]nc(-c4ccc5c(cnn5C)c4)c3C2)C1` [Compound 127, N-[1-[(2,6-dimethylphenyl)-methyl]-3(R)-piperidinyl]-1,4,6,7-tetrahydro-3-(1-methyl-1H-inclazol-5-yl)-5H-pyrazolo[4,3-c]pyridine-5-carboxamide]: the pIC50 was > 7.70.

Consider `O=C(N[C@@H]1CCN(Cc2csc3ccccc23)C1)N1CCc2[nH]nc(-c3ccc(-c4ccccc4)nc3)c2C1` [Compound 129, N-[1-(benzo[b]thien-3-ylmethyl)-3(R)-pyrrolidinyl]-1,4,6,7-tetrahydro-3-(6-phenyl-3-pyridinyl)-5H-pyrazolo[4,3-c]pyridine-5-carboxamide], for which the pIC50 is 6.00 to 7.00.

`O=C(N[C@@H]1CCCN(Cc2c(F)cccc2F)C1)N1CCc2[nH]nc(-c3ccc4ncccc4c3)c2C1` [Compound 130, N-[1-[(2,6-difluorophenyl)-methyl]-3(R)-piperidinyl]-1,4,6,7-tetrahydro-3-(6-quinolinyl)-5H-pyrazolo[4,3-c]pyridine-5-carboxamide] gave a pIC50 of 7.00 to 7.68.

For `COc1ccc(-c2n[nH]c3c2CN(C(=O)N[C@@H]2CCCN(Cc4c(F)cccc4F)C2)CC3)cc1F` [Compound 131, N-[1-[(2,6-difluorophenyl)-methyl]-3(R)-piperidinyl]-3-(3-fluoro-4-methoxyphenyl)-1,4,6,7-tetrahydro-5H-pyrazolo[4,3-c]pyridine-5-carboxamide], the pIC50 was 7.00 to 7.68.
